Series [1] relates to SH-SY5Y cells. Kind of series: Intracellular sulfide levels in SH-SY5Y cells (HPLC). The series is classed as cell-based, Human. The settings on record: 20 μM, SH-SY5Y. The method, then: Human neuroblastoma SH-SY5Y cells were cultured in Eagle's medium/Ham's F-12 50/50 Mix (DMEM/F12, Cellgro by Mediatech, Inc.) supplemented with 10% fetal bovine serum (FBS) and 1% penicillin/streptomycin. The cells were seeded into 96 well plates (2×10^4 cells per well) for OGD and measurements of toxicity, 6 cm dishes (5×10^5 cells per dish) for measurements of sulfide and reduced-glutathione (GSH), or 10 cm dishes (1×10^6 cells per dish) for measurements of intracellular calcium. Cell culture medium was replaced every 2 days, and the cultures were maintained at 37° C. in 95% air/5% CO2 in a humidified incubator. Cells were used after reaching 80% confluent.
Concentration of free sulfide in SH-SY5Y cells was measured using high performance liquid chromatography (HPLC) (Tokuda et al. (2012) Antioxidants & Redox Signaling). Briefly, SH-SY5Y cells were seeded into 6 cm dishes (5×10^5 cells per dish). After being 80% confluent, 20 μM H2S donor was added to the dish and incubated at 37° C. Cells were washed with ice-cold Tris-HCl (100 mM, PH 9.5, DTPA 0.1 mM) buffer, scraped, transferred to microfuge tubes, and centrifuged. MBB (10 mM in acetonitrile, 50 μl) was added to 100 μl of supernatant. After 30 minutes of incubation at room temperature in dark, 50 μl of 200 mM 5-sulfosalicylic acid (SSA) was added. After centrifugation, supernatant was analyzed by HPLC. For sulfide levels in medium, after centrifugation, supernatant was used for MBB reaction as above.
In contrast, incubation of SH-SY5Y cells with S-memantine increased intracellular sulfide level more markedly than incubation with ACS48 at all time points after addition (˜10 fold at 4 hours, P<0.001 by two-way ANOVA with Bonferroni post-test). In a separate experiment, we examined whether or not incubation with memantine itself or incubation with ACS48 and memantine would affect intracellular sulfide levels in SH-SY5Y cells.

Series [2] has as its system SH-SY5Y cells. Briefly: Oxygen-glucose deprivation (OGD) of SH-SY5Y cells, viability by LDH release, MTT and CV assays. In kind it is cell-based, Human. The method, then: OGD for SH-SY5Y was performed by placing cells in a hypoxia chamber ([…] Technologies Inc.) for 15 hours, followed by 24 hours of reoxygenation as previously reported (FIG. 3A) (Serra-Pérez et al. (2008) Journal of Neurochemistry 106, 1237-1247). Briefly, medium was replaced with glucose-free RPMI 1640 with L-glutamine (Cellgro by Mediatech, Inc), deoxygenated with anaerobic gas mixture (93% N2-5% CO2-2% H2) for 30 minutes before use. Cells were then placed in a hypoxia chamber, flushed with anaerobic gas mixture (93% N2-5% CO2-2% H2) and incubated at 37° C. After 15 hours of hypoxia, medium was replaced with DMEM/F12 and incubated for 24 hours at 37° C. in 95% air/5% CO2 in a humidified incubator.
A microtiter plate containing cells was centrifuged at 250×g for 10 minutes and the supernatant was used for LDH measurement with LDH Cytotoxicity Detection Kit (Roche). After aspirating the medium, remaining cells were washed with PBS, then, 100 μl of 1% Triton-X was added to each well, followed by incubation at 37° C. for 30 minutes. Medium and lysates were used for LDH measurement at wavelength 492 nm. Percentage of released LDH was calculated with following formula: {LDH (medium)/LDH (medium+cell)×100}. Average value of control (cells without OGD) was deducted as background.
Ten μl of thiazolyl blue tetrazolium bromide solution (5 mg/ml in PH 7.4 PBS) was added to each well containing 100 μl of medium and cells, followed by incubation at 37° C. for 4 hours in the dark. Isopropanol (100 μl, 0.04 N HCl) was added to dissolve blue dye. After dissolved completely, absorbance was measured with plate-reader (Synergy 2, BioTek Instrument) at test wavelength 570 nm and reference wavelength 670 nm. Cell viability was determined by absorbance at 570 nm and reported as ratio to control cells (without OGD).
After aspirating culture medium, cells were fixed and stained by 0.5% CV in 95% (v/v) ethanol for 5 minutes, then washed by tap water several times. After taking photographs, 1% sodium dodecylsulfate solution was added to each well to elute blue dye. Absorbance was measured with plate-reader at 595 nm of wavelength. Values were shown as ratio to control (cells without OGD).
A general note: Release of lactate dehydrogenase indicates damage to the cell membrane.

The test system of series [3] is murine primary cortical neurons. Briefly: Intracellular calcium level [Ca2+]i (Fura-2/AM) with or without glutamate. The following applies: 20 μM. The series is classed as cell-based, mice. On the technique in general: Calcium assays in cells follow changes in intracellular calcium, usually with a dye or a luminescent sensor.
Series [4] relates to phosphorylated Akt at threonine 308. Briefly: Immunoblot of phosphorylated Akt in SH-SY5Y after OGD. The series is classed as cell-based, Human. The settings on record: 50 μM added 8 hours after end of OGD.
The nature of series [5]: Plasma and cerebral sulfide levels of mice after intraperitoneal administration. In kind it is in vivo. The following applies: 25 μmol/kg intraperitoneal, 90 minutes after administration. The source says:
Blood was drawn from left ventricle and centrifuged to collect the plasma. After perfusion with Tris-HCl buffer via left ventricle, brain was harvested, homogenized in Tris-HCl, and centrifuged. Plasma and supernatant of brain homogenate were derivatized with MBB and analyzed by HPLC.

The subject of another series is SH-SY5Y. Kind of series: Amyloid beta-induced toxicity in SH-SY5Y (LDH release, MTT). The series is classed as cell-based, Human. The settings on record: 24 hours incubation with Aβ1-42 at 20 μM. The procedure:
FIG. 12A-B is a set of two bar graphs showing cell viability of SH-SY5Y cells exposed to 20 μM amyloid beta (Aβ) and treated with memantine, ACS48, or S-memantine at 20 or 50 μM. Cell viability was estimated by LDH release assay in the left graph and MTT assay in the right graph.

The subject of series [6] is murine primary cortical neurons. Kind of series: Amyloid beta-induced toxicity in murine primary cortical neurons (LDH release, MTT). The series is classed as cell-based, mice. The following applies: 24 hours incubation with Aβ1-42 at 20 μM. The procedure: FIG. 13A-B is a set of two bar graphs depicting cell viability of murine primary cortical neurons exposed to 20 μM amyloid beta (Aβ) and treated with memantine, ACS48, or S-memantine at 5, 10, or 30 μM. Cell viability was estimated by LDH release assay in the left graph and MTT assay in the right graph.

For series [7], the system named is phosphorylated tau protein at serine 202 and threonine 205. Briefly: LPS-induced tau phosphorylation in mice hippocampus (immunoblot). The series is classed as in vivo. The settings on record: 90 μmol/kg pretreatment. (In general: A western blot detects proteins with antibodies after separation by electrophoresis.)
Another series deals with mice challenged with LPS. Briefly: LPS-induced cognitive impairment, Morris water-maze.
[8] abbreviates: time- and dose-range studies, SH-SY5Y.

With `C[C@]12C[C@@H]3C[C@](C)(C1)C[C@@](NC(=O)c1ccc(-c4cssc4=S)cc1)(C3)C2` [S-memantine, N-((1r,3R,5S,7r)-3,5-dimethyladamantan-1-yl)-4-(3-thioxo-3H-1,2-dithiol-4-yl)-benzamide], in the series on SH-SY5Y cells [1] (37° C.), the Intracellular sulfide levels entry is reported as “increased intracellular sulfide levels”. For the same compound, the “Intracellular sulfide level relative to incubation with ACS48” value in the series on SH-SY5Y cells [1] (at 4 hours) is around 10 fold. For the same compound, the “Cell viability after OGD (LDH release, MTT, CV assays)” value in the series on SH-SY5Y cells [2] (50 μM added 8 hours after the end of OGD, 15 hours OGD, 24 hours reoxygenation) is recorded as “improved the viability of SH-SY5Y cells more markedly than did addition of ACS48 or memantine”. For the same compound, in the series on SH-SY5Y cells [2] (incubation starting at any time between pre-OGD and up to 8 hours after OGD), the “Cell viability after OGD” value is on record as “improved”. In addition, in the series on SH-SY5Y cells [2] (setting [8]), the “Most effective dose to improve viability after OGD” value was determined as 50 µM and the “Most effective time point of addition after the end of OGD” value worked out at 8 h. Also, the Glutamate-induced calcium accumulation entry in series [3] (100 μM glutamate) is reported as “suppressed calcium accumulation”. The “Magnitude of calcium accumulation compared with Na2S or ACS48” value in series [3] (without glutamate) is “markedly smaller than that induced by Na2S or ACS48”. For the same compound, the “Akt phosphorylation after OGD” value in [4] is on record as “did not affect Akt phosphorylation”. Besides, in series [5], the Cerebral sulfide levels entry is reported as “increased” and the Plasma sulfide levels result is on record as “increased plasma sulfide levels”. For the same compound, the “Cell viabilities after Aβ1-42 compared with memantine” value in the series with SH-SY5Y was “improved cell viabilities more markedly than did memantine”. Also, the “Cell viabilities after Aβ1-42” value in the series on SH-SY5Y (compound 20 or 50 μM) is given as “improved cell viabilities”. Further, the “Cell viabilities after Aβ1-42 compared with memantine” value in series [6] is on record as “improved cell viabilities more markedly than did memantine”. Also, the “Cell viabilities after Aβ1-42” value in series [6] (compound 5, 10 or 30 μM) is recorded as “improved cell viabilities”. In addition, in [7], the “LPS-induced tau phosphorylation at serine 202 and threonine 205 in mice hippocampus” value is “prevented LPS-induced tau phosphorylation”. Moreover, in the series with mice challenged with LPS (90 μmol/kg i.p.), the “Swimming speed in Morris water-maze test” value is “did not change it”. Further, the “Latency until getting platform in Morris water-maze test” value in the series with mice challenged with LPS (90 μmol/kg i.p. 30 min before LPS, 4 hours after LPS-challenge) is on record as “improved latency”.

The values above are taken from patent publication US9242009B2, “Compositions and methods to treat neurodegenerative diseases” (The General Hospital Corporation, priority 2012, dated 2016).
